{"source": "patent US20030216448A1", "about": "“Treatment of neuropathic pain” (priority 2002, published 2003)", "key": {"[1]": {"tested_on": "rat spinal nerve ligation model of neuropathic pain", "experiment": "mechanical allodynia (von Frey) in the spinal nerve ligation model of neuropathic pain", "type": "in vivo", "text": "(§1) Under halothane anesthesia, the L5 and L6 spinal nerves were tightly ligated in the manner described previously by Chung et al. (Kim S. H., Chung J. M., An experimental model for peripheral neuropathy produced by segmental spinal nerve ligation in the rat. Pain 1992; 50:355-363.). Briefly, an incision was made on the dorsal portion of the hip, and the muscle was blunt dissected to reveal the spinal processes. The L6 transverse process was removed, and the left L5 and L6 spinal nerves were tightly ligated with 5.0 braided silk suture. The wound was cleaned, the membrane sewn with 4.0 dissolvable Vicryl suture and the skin closed with wound clips.\nImplantation of the DRG catheters was performed immediately following nerve ligation, with animals maintained under halothane for the entire procedure (35-40 minutes). Catheters were constructed of PE 20 with small pieces of tygon tubing cemented along the catheter to allow for suture anchoring points during surgery. The left L5 DRG was exposed by removing the posterior articular process of the L5 vertebra. Gelfoam was inserted into the cavity to prevent the catheter from damaging the ganglion. The catheter was sutured to the muscle and fascia, then run subcutaneously to exteriorize between the shoulder blades. Saline was infused into the catheter, and it was heat sealed.\nThe implantation of i.c.v. cannulae were conducted under sodium pentobarbital (50 mg/kg, i.p. Nembutal) anesthesia with nerve ligation occurring just after the implantation; animals were maintained under anesthesia for the entire procedure (40-45 minutes). Animals were implanted with a 22 gauge guide cannulae (Plastics One, Roanoke Va.) cut to 6 mm. The stereotaxic coordinates from bregma were 1.0 mm posterior, 1.6 mm lateral, and 4.5 ventral (Paxinos G. and Watson C., The rat brain in stereotaxic coordinates. New York: Academic Press, 1997). Three skull screws were attached for stability, and the implant was covered with cranioplastic acrylic.\nFor i.c.v. (intracerebroventricular) infusion, chlorisondamine (10 μg) was dissolved in 5 μl phosphate buffered saline and infused by syringe pump at a rate of 5 μl/min. The infusion was performed 24 hours prior to testing in order to reduce stress to the animals immediately prior to behavioral testing.\nFor all other routes of administration including intraperotineal (i.p.), intradermal (i.d.) or onto the DRG, chlorisondamine was dissolved in saline. The final volumes for i.p. injections were 1 ml/kg, for i.d. were 50 μl and for DRG injections were 10 μl. All injections were made by hand held syringe.\nFor the assessment of neuropathic pain, mechanical allodynia in the affected paw of animals who had undergone spinal nerve ligation was evaluated using von Frey filaments. As described previously (Chaplan et al., Quantitative assessment of tactile allodynia in the rat paw. J Neurosci Meth, 1994; 53:55-62), two weeks following surgery, rats were acclimated to the testing box which was constructed of plexiglass with a wire mesh floor to allow access to the planter surface of the hind paws. Using the Dixons Up-Down method, a baseline level of allodynia was taken with allodynia defined as a withdrawal threshold ≦4 g. Test compounds were then administered and subsequent withdrawal thresholds determined.\nFor spinal nerve ligation experiments, the timing of antagonist administration depended upon the route of administration. With i.c.v. administration, chlorisondamine or its vehicle was given 24 hours prior to further manipulation. On the day of the experiment, a baseline allodynia score was determined and then A-85380 or its vehicle control was given and measures taken at 15, 30 and 60 minutes post agonist injection. Dose response curves for i.p., i.d. and DRG administration were also determined using this time line. […]"}, "[2]": {"experiment": "side effects observed after injection in spinal nerve ligated rats", "type": "in vivo, rat"}, "[3]": {"tested_on": "formalin model of persistent pain", "experiment": "formalin model of persistent pain, phase two", "type": "in vivo, rat", "conditions": "A-85380 0.75 μmol/kg", "method": "The formalin test was used as an assessment of persistent pain. The method, described previously (Bannon et al. 1998) is briefly as follows. Following acclimation to the test environment, 50 μl of a 5% formalin solution was injected subcutaneously into the dorsal surface of one of the rear paws. Only phase two, defined as the 20 minute period from 30 to 50 minutes post formalin injection, was scored for nocifensive behaviors including flinching, licking, and biting.\nFor formalin experiments, chlorisondamine or its vehicle was infused either 24 h or 40-50 minutes prior to further manipulation. A-85380 was then injected and, 5 minutes later, formalin was injected into the paw. Measures were taken between 30 and 50 minutes post formalin injection.\nFor experiments with repeated measures, i.e. acute thermal pain and mechanical allodynia, data were first analyzed using a two way repeated measures analysis of variance (ANOVA) with two independent factors. For experiments without repeated measures, i.e. formalin, data were first analyzed using a two way ANOVA with two independent factors. If there was a significant interaction of both factors or of both factors and time, subsequent post hoc one way ANOVAs were performed using each treatment combination as an independent group. The difference in paw withdrawal latencies between the affected and unaffected paw of neuropathic animals tested in acute thermal pain was assessed using a paired t-test. All post hoc significance was determined using Fishers LSD."}, "[4]": {"tested_on": "rat paw withdrawal model of acute thermal pain", "experiment": "rat paw withdrawal model of acute thermal pain, normal rats", "type": "in vivo", "conditions": "A-85380 0.75 μmol/kg", "text": "For the assessment of acute pain, a paw thermal stimulator was used to evaluate nociceptive responses to an acute thermal stimulus (Anesthesiology Research Laboratory, Department of Anesthesiology, University of California at San Diego, La Jolla, Calif.). The device and behavioral procedure have been described previously (Hargreaves et al., A new and sensitive method for measuring thermal nociception in cutaneous hyperalgesia, Pain 1988, 32:77-88; Dirig et al., Characterization of variables defining hind paw withdrawal latency evoked by radiant thermal stimuli, J. Neurosci. Meth. 1997; 76:183-191). […] The measured nociceptive response was the latency to withdraw the hind paw when heated by light from a focused projector lamp (current set at 4.8 A). […]\n(§2) For acute thermal pain experiments, a baseline withdrawal threshold was determined, and then chlorisondamine or its vehicle was administered. […]\nFor experiments with repeated measures, i.e. acute thermal pain and mechanical allodynia, data were first analyzed using a two way repeated measures analysis of variance (ANOVA) with two independent factors. For experiments without repeated measures, i.e. formalin, data were first analyzed using a two way ANOVA with two independent factors. […] All post hoc significance was determined using Fishers LSD."}, "[5]": {"tested_on": "rat paw withdrawal model of acute thermal pain using neuropathic rats", "experiment": "rat paw withdrawal model of acute thermal pain using neuropathic rats", "type": "in vivo", "conditions": "antagonist 0.4 μmol/kg, i.p., A-85380 0.75 μmol/kg", "text": "as §1\nFor the assessment of acute pain, a paw thermal stimulator was used to evaluate nociceptive responses to an acute thermal stimulus (Anesthesiology Research Laboratory, Department of Anesthesiology, University of California at San Diego, La Jolla, Calif.). […] The measured nociceptive response was the latency to withdraw the hind paw when heated by light from a focused projector lamp (current set at 4.8 A). […]\nas §2\nTo address this concern, neuropathic rats were assessed in the acute thermal model of paw withdrawal. […]"}}, "note": "Counter-ions that a name gives are not always drawn.", "data": [{"smiles": "C[N+](C)(C)CCCCCC[N+](C)(C)C", "note": "[Hexamethonium, hexamethonium]", "values": [{"measurement": "effect of systemically administered antagonist on A-85380 induced anti-allodynia", "setting": "[1]; antagonist 19 μmol/kg, i.p. 30 minutes prior, A-85380 0.75 μmol/kg, i.p.", "result": "blocked"}]}, {"smiles": "O=C(NO)c1cncc(N2C[C@H]3CNC[C@H]32)c1", "note": "[A-420503, (IR, 5S) 5-(3,6-diazabicyclo [3.2.0]hept-6-yl)-N-hydroxy-nicotinamide]", "values": [{"measurement": "anti-allodynia at the DRG", "setting": "[1]; 4.77 μmol/kg, i.p.", "result": "significant anti-allodynia"}, {"measurement": "anti-allodynia when injected i.p.", "setting": "[1]; 62 μmol/kg, i.p.", "result": "significant anti-allodynia"}, {"measurement": "effect of antagonist pretreatment on the compound's effects at the DRG", "setting": "[1]; pretreatment with an NMR antagonist", "result": "blocked"}, {"measurement": "side effects when injected i.p.", "setting": "[2]; 62 μmol/kg, i.p.", "result": "without any notable side effects"}]}, {"smiles": "CNC1(C)C2CCC(C2)C1(C)C", "note": "(stereo not shown) [Mecamylamine, mecamylamine hydrochloride]", "values": [{"measurement": "effect of antagonist pretreatment on A-85380 induced anti-allodynia", "setting": "[1]; antagonist 1 μmol/kg, i.p. 30 minutes prior, A-85380 0.75 μmol/kg, i.p.", "result": "completely blocked"}, {"measurement": "effect of antagonist on prostration and ataxia following A-85380 injection", "setting": "[2]; antagonist 1 μmol/kg, i.p. 30 minutes prior to A-85380", "result": "blocked the prostration and ataxia"}]}, {"smiles": "Cl.Cl.c1cncc(OC[C@@H]2CCN2)c1", "note": "[A-85380, 3-(2(S)-azetidinylmethoxy)pyridine dihydrochloride]", "values": [{"measurement": "duration of anti-allodynia after DRG infusion", "setting": "[1]; 10 μg onto the L5 DRG", "result": 15, "unit": "min"}, {"measurement": "duration of anti-allodynia after DRG infusion", "setting": "[1]; 20 μg onto the L5 DRG", "result": 30, "unit": "min"}, {"measurement": "anti-allodynia after ipsalateral paw injection", "setting": "[1]; 10, 20 and 50 μg/rat, i.d., affected paw, predominately at 15 minutes", "result": "only the 50 μg dose of A-85380 had an anti-allodynic effect"}, {"measurement": "anti-allodynia after contralateral paw injection", "setting": "[1]; 10, 20 and 50 μg/rat, i.d., unaffected paw, predominately at 15 minutes", "result": "all three doses of A-85380 induced a significant anti-allodynia"}, {"measurement": "anti-allodynia when infused onto the L5 DRG", "setting": "[1]; 10 and 20 μg onto the L5 DRG on the side of the ligation", "result": "significant anti-allodynia"}, {"measurement": "potency to increase paw withdrawal threshold, DRG compared with i.p. and i.d. administration", "setting": "[1]; i.d. and DRG doses converted to equivalent systemic dose, fifteen-minute time point", "result": "decidedly more potent when administered directly onto the DRG"}, {"measurement": "anti-allodynia (paw withdrawal threshold), systemic administration", "setting": "[1]; i.p., multiple doses, 15, 30 and 60 minutes", "result": "dose dependent anti-allodynia"}, {"measurement": "behaviors induced immediately following injection", "setting": "[2]; A-85380 0.5-1.0 μmol/kg, i.p.", "result": "prostration and ataxia"}, {"measurement": "time point by which prostration and ataxia abated", "setting": "[2]; A-85380 0.5-1.0 μmol/kg, i.p.", "result": "≤ 15", "unit": "min"}, {"measurement": "analgesia (decrease in flinches), phase two of formalin test", "setting": "[3]; i.p.", "result": "analgesic effects"}, {"measurement": "antinociception (increase in paw withdrawal latency)", "setting": "[4]; i.p.", "result": "antinociceptive action"}]}, {"smiles": "C[N+](C)(C)CC[N+]1(C)Cc2c(Cl)c(Cl)c(Cl)c(Cl)c2C1", "note": "[chlorisondamine, chlorisondamine diiodide]", "values": [{"measurement": "effect of systemically administered antagonist on A-85380 induced anti-allodynia", "setting": "[1]; antagonist 0.4 μmol/kg, i.p. 30 minutes prior, A-85380 0.75 μmol/kg, i.p.", "result": "completely blocked"}, {"measurement": "effect of systemic antagonist on anti-allodynia induced by A-85380 infused onto the DRG", "setting": "[1]; antagonist 0.4 μmol/kg, i.p. 30 minutes prior, A-85380 20 μg onto DRG", "result": "completely blocked"}, {"measurement": "effect of i.c.v. antagonist on A-85380 induced anti-allodynia", "setting": "[1]; antagonist 10 μg i.c.v. 24 hours prior, A-85380 0.75 μmol/kg, i.p.", "result": "completely blocked"}, {"measurement": "effect of antagonist on A-85380 induced antinociception in neuropathic rats", "setting": "[5]", "result": "did not alter"}, {"measurement": "effect of systemically administered antagonist on A-85380-induced analgesia", "setting": "[3]; antagonist 0.4 μmol/kg, i.p. 40-50 minutes prior to formalin", "result": "no significant attenuation"}, {"measurement": "effect of i.c.v. antagonist on A-85380-induced analgesia", "setting": "[3]; antagonist 10 μg i.c.v. 24 hours prior, i.p.", "result": "completely blocked"}, {"measurement": "effect of antagonist pretreatment on the antinociceptive action of A-85380", "setting": "[4]; antagonist 0.4 μmol/kg, i.p. 30 minutes prior", "result": "no effect"}]}]}
